Test results from ChEMBL document CHEMBL1201862, “PubChem BioAssay data set” (2004).
Active and inactive are the calls of the source. For most assays here, no stated cut-off is given here; in the data, actives have a measured EC50 and inactives only a lower limit.

How the values were obtained:
[1] = molecular target: Protein Wnt-3a (Mus musculus, UniProt P27467); experiment: antagonism of Wnt3a pathway luciferase reporter – Wnt-LIGHT cells, luminescence, selectivity assay for Gli-SUFU antagonist project, dose response (AID 651570); format: functional; conditions: read-out: IC50_Mean;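 further: Wnt-LIGHT reporter cells stimulated with conditioned medium from Wnt3a-producing cells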
[2] = test system: INS1; experiment: INS-1E survival protection against cytokine death – cell-based, luminescence, retest, dose response (AID 449756); format: functional; conditions: Rattus norvegicus;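 further: cell death triggered by IL-1 beta plus TNF-alpha plus IFN-gamma mixture; protective hits raise ATP signal compared with cytokine alone wells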
[3] = Trypanosoma cruzi growth suppression in host cells – NIH3T3 host cells, beta-gal luminescence, confirmation (AID 2044); format: functional, cell-based;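 further: intracellular parasites grown in NIH/3T3 mouse fibroblasts as host cells; luminescent beta-galactosidase reporter signal from transgenic T. cruzi replicating inside host cells; inhibitors lower the luminescence signal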
[4] = NIH3T3 cell viability loss – ATP luminescence, mouse fibroblasts, counter-screen, dose response (AID 2010); format: functional, cell-based;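 further: cells exposed to compound for about 90 hours before reading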
[5] = molecular target: T1, Serine/threonine-protein phosphatase (Candida dubliniensis (strain CD36 / CBS 7987 / NCPF 3949 / NRRLY-17841) (Yeast), UniProt B9W6M3); experiment: blockers of CaCl2-induced CDRE-lacZ signaling – S. cerevisiae, luminescence, secondary, dose response (AID 2388); format: functional, cell-based;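 further: yeast reporter cells carrying a calcineurin-responsive lacZ construct stimulated with calcium chloride; luminescent beta-galactosidase reporter signal in whole cells rather than isolated phosphatase activity; potency for inhibition where a drop in reporter signal means calcineurin blockade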
T1 sequence (B9W6M3 whole entry): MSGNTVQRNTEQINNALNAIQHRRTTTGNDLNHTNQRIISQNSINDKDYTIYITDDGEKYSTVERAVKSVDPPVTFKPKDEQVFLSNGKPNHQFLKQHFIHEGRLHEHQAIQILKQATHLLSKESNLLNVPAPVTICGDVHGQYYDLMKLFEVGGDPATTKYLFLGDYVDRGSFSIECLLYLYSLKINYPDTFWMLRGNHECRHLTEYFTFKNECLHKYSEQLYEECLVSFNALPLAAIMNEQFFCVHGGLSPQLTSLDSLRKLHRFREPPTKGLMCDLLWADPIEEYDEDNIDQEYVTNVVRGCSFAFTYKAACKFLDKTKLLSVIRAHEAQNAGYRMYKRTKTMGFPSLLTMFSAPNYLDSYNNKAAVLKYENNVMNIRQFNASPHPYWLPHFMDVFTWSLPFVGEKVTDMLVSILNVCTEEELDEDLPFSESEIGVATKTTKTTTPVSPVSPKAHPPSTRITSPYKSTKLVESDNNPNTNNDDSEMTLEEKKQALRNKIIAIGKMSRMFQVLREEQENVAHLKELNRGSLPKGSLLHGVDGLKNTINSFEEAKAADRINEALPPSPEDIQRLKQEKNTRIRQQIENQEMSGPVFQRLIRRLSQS

[6] = NIH-3T3 fibroblast cytotoxicity, dose response, cytotoxicity control, cell-based, fluorescence, Alamar Blue, secondary assay (AID 2327); format: functional;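 further: NIH-3T3 mouse fibroblasts cultured with fluconazole at 8 µg/mL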
[7] = fluconazole-exposed Candida albicans growth modulators – fluorescence, retest, confirmation (AID 2467); format: functional, cell-based
[8] = molecular target: ATP-dependent molecular chaperone HSP82 (Candida albicans (strain WO-1) (Yeast), UniProt C4YTQ8); experiment: steroid-induced GRE reporter decrease in yeast – S. cerevisiae, luminescence, Hsp90 inhibitor project, dose response (AID 2400); format: functional, cell-based;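 further: beta-galactosidase luminescence from glucocorticoid response element reporter as proxy for Hsp90 function; inhibitor potency where signal loss means Hsp90 inhibition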
[9] = molecular target: T2, Streptokinase A (Streptococcus pyogenes serotype M1, UniProt P10520); experiment: viability-normalized secreted streptokinase activity reduction – plasminogen activation absorbance, OD405, dose response (AID 1914); format: functional, Streptococcus pyogenes M1 GAS;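 further: secreted streptokinase activity via plasminogen activation per viability signal from cell pellet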
T2 sequence (P10520 whole entry): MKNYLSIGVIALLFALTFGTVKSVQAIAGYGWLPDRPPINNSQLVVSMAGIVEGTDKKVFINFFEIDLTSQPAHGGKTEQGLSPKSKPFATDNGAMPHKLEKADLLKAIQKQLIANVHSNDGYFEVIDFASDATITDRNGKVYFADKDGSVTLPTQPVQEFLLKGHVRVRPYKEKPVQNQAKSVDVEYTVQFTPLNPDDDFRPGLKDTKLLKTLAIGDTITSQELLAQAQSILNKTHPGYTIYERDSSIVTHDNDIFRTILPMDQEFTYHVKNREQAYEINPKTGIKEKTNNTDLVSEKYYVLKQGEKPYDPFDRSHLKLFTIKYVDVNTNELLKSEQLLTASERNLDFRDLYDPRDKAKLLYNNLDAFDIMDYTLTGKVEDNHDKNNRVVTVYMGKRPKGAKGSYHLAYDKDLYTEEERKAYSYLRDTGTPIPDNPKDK

[10] = test system: Streptococcus sp. 'group A'; experiment: Streptococcus pyogenes SK(-)GAS viability under kanamycin – luminescence, BacTiterGlo, confirmation, counter-screen for streptokinase expression inhibitor project, dose response (AID 1900); format: functional, organism-based
[11] = test system: Streptococcus; experiment: GAS UMAA2166 growth inhibition – luminescence, BacTiterGlo, counter-screen for streptokinase expression inhibitor project, dose response (AID 1915); format: functional, organism-based;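 further: potency for reduction of bacterial viability or growth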
[12] = reduction of Shn3 3'UTR-driven luciferase in osteoblasts – cell-based, Clone20 osteoblasts, firefly luciferase, cherry-picked, dose response (AID 624132); format: functional;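 further: firefly luciferase luminescence from reporter carrying the Shn3 3'UTR in osteoblasts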
[13] = loss of viability in HepG2 cells – cell-based, CellTiter-Glo, cherry-picked, cytotoxicity control for Shn3 inhibitor project, dose response (AID 624134); format: functional
[14] = non-specific 3'UTR reporter inhibition in Clone20-Shn3RL – cell-based, Renilla luciferase, cherry-picked, counter-screen for Shn3 inhibitor project, dose response (AID 624133); format: functional
[15] = molecular target: T3, High affinity choline transporter 1 (Homo sapiens, UniProt Q9GZV3); experiment: human choline transporter blockers, potency – cell-based, 5-point CRC, membrane potential dye, dose response (AID 504840); format: functional
T3 sequence (Q9GZV3 whole entry): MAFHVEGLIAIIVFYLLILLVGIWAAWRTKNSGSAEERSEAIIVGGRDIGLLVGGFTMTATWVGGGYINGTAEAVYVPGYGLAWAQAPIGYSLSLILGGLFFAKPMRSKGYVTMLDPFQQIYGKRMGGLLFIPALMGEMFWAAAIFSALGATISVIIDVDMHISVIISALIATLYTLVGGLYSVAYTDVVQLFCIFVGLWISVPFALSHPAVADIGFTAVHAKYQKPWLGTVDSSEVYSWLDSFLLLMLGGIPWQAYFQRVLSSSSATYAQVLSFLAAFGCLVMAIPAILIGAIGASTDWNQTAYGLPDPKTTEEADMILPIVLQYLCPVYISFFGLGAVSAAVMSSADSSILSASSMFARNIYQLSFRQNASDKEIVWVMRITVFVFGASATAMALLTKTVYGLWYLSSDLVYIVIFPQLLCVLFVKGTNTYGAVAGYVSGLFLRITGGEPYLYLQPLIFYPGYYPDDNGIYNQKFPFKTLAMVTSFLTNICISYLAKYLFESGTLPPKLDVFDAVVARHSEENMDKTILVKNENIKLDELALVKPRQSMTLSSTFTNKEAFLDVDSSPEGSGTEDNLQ

Chain of Protein Wnt-3a (P27467 whole entry): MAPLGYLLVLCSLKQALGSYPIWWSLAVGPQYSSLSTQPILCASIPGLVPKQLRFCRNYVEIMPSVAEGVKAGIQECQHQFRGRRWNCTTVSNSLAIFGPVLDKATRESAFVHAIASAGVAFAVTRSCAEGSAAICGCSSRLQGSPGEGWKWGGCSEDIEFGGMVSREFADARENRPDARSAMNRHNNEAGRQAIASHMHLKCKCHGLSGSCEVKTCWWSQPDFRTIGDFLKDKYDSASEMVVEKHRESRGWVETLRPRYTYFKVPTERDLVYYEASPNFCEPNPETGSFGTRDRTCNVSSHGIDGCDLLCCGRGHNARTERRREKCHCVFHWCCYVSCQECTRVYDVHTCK
Chain of ATP-dependent molecular chaperone HSP82 (C4YTQ8 whole entry): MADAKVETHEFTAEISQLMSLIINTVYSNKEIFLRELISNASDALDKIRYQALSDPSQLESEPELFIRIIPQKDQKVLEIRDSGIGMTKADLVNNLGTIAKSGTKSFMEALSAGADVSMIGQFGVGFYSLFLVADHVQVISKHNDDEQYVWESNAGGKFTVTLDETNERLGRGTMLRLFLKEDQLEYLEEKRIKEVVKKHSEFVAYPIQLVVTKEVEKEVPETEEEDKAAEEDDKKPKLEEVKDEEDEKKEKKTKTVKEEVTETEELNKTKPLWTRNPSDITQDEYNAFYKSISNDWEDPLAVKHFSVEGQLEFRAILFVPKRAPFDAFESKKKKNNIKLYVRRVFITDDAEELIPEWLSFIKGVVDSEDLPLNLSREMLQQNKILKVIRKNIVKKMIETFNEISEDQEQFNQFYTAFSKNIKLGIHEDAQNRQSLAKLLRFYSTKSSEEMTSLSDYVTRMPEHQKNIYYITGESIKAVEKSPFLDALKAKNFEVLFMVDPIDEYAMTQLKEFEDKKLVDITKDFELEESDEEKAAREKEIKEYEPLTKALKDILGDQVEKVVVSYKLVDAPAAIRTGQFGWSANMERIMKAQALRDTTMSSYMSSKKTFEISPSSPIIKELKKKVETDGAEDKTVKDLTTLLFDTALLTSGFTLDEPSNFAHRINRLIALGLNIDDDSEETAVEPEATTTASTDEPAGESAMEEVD

Compound | IC50 [1] | EC50 [5] | EC50 [6] | EC50 [7] | EC50 [8] | further results
O=C(Nc1ccc(C(F)(F)F)cc1)C1CCN(S(=O)(=O)c2ccc(N3CCCC3=O)cc2)CC1 | 2.18 µM (active) |  |  |  |  | AC50 [2]: 3.1 µM (active)
CCCc1c(CC)c(=N)c2ccccc2n1C | 11.3 µM (active) |  |  |  |  | EC50 [3]: 0.121 µM (active); EC50 [4]: > 60 µM (not active)
C[C@@H]1CC[C@@]2(NC1)O[C@H]1C[C@H]3[C@@H]4CC=C5C[C@@H](O)CC[C@]5(C)[C@H]4CC[C@]3(C)[C@H]1[C@@H]2C |  | > 180 µM (inactive) | > 160 µM (inconclusive) | 0.272 µM (active) | > 160 µM (inactive) | 
CC(C)C(=O)NC(c1cccs1)c1cc([N+](=O)[O-])c2cccnc2c1O (stereo not drawn) |  | > 180 µM (inactive) | 13.4 µM (active) | 0.242 µM (active) | 24.6 µM (active) | EC50 [9]: > 150 µM (not active); AC50 [2]: 3.87 µM (active); EC50 [10]: 2.59 µM (active); EC50 [11]: 6.98 µM (active)
O=C(N/N=C/c1cc2ccccc2nc1Cl)[C@H]1C[C@@H]1c1ccccc1 | 39.9 µM (inactive) |  |  |  |  | 
O=C(Nc1nnc(CCc2ccccc2)s1)c1ccco1 |  | > 180 µM (inactive) | > 150 µM (inactive) | 1.08 µM (active) | > 150 µM (inactive) | 
O=C(c1ccc(Cn2c(=O)[nH]c3ccccc3c2=O)cc1)N1CCN(c2ccc(F)cc2)CC1 |  | > 180 µM (inactive) | 14.3 µM (active) | 0.912 µM (active) | > 150 µM (inactive) | 
Cc1cc(C)c[n+](C(C)C(=O)c2ccc(-c3ccccc3)cc2)c1 (stereo not drawn) | 8.95 µM (active) |  |  |  |  | 
CCC(=O)NC(c1ccco1)c1cc(Cl)c2cccnc2c1O (stereo not drawn) |  | > 180 µM (inactive) | 24.9 µM (active) | 0.56 µM (active) | > 150 µM (inactive) | EC50 [3]: 1.97 µM (active); AC50 [12]: 1.31 µM (active); AC50 [13]: 7.81 µM (active); EC50 [4]: 7.21 µM (active); AC50 [14]: 3.57 µM (active)
Cn1c(N2CCOCC2)c(/C=N/OC(=O)c2ccc(F)cc2)c2ccccc21 |  | > 180 µM (inactive) | > 160 µM (inconclusive) | 0.382 µM (active) | > 160 µM (inactive) | EC50 [3]: 0.596 µM (active); IC50 [15]: 15.9 µM (active); EC50 [4]: 1.98 µM (active)
C[C@@H]1COC(=O)[C@H](NC(=O)OCC2c3ccccc3-c3ccccc32)C/C=C\C[C@@H](CC(=O)N[C@@H](CO)Cc2ccccc2)C(=O)N1 | 12.3 µM (active) |  |  |  |  | 
Sc1nnc(C2CCCCC2)n1/N=C/c1ccc(Br)s1 |  | > 180 µM (inactive) | > 150 µM (inactive) | 1.07 µM (active) | 18.9 µM (active) | 
